≈ marks a conversion by molar mass, not a printed value.
What was measured:
Assay type in all cases: cell-based
[1] = system: Escherichia coli (MC4100); experiment: Minimum inhibitory concentration (MIC), E. coli; details: MH media, 37° C., 72 hours, visual growth
Procedure: (§1) As used herein, the term “minimum inhibitory concentration (MIC)” refers to the lowest concentration of an antimicrobial agent that will inhibit the visible growth of a microorganism after overnight incubation. MIC values against bacteria, for example, the Gram-positive Staphylococcus aureus and Enterococcus faecalis and the Gram-negative Escherichia coli and Pseudomonas aeruginosa were determined by standard methods. See also P. A. Wayne, Methods for Dilution Antimicrobial Tests for Bacteria that Grow Aerobically; Approved Standard, Ninth Edition, 2012, CLSI Document M07-A9, Vol. 32 No. 2, which is incorporated by reference herein in its entirety.
(§2) For all biological assays, laboratory strains of methicillin-susceptible Staphylococcus aureus MSSA (SH1000), Enterococcus faecalis (OG1RF), Escherichia coli (MC4100), Pseudomonas aeruginosa (PAO1), community-acquired methicillin-resistant Staphylococcus aureus CA-MRSA (USA300-0114), and hospital-acquired methicillin-resistant Staphylococcus aureus HA-MRSA (ATCC 33591) were grown with shaking at 37° C. overnight from freezer stocks in 10 mL of the indicated media.
(§3) Compounds were serially diluted two-fold from stock solutions to yield twelve test concentrations. Overnight S. aureus, E. faecalis, E. coli, P. aeruginosa, USA300-0114 (CA-MRSA), and ATCC 33591 (HA-MRSA) cultures diluted to ca. 10^6 cfu/mL in MH media and 100 μL were inoculated into each well of a U-bottom 96-well plate (BD Biosciences, BD 351177) containing 100 μL of compound solution. Plates were incubated statically at 37° C. for 72 hours upon which time wells were evaluated visually for bacterial growth. The MIC was determined as the lowest concentration of compound resulting in no bacterial growth visible to the naked eye, based on the majority of three independent experiments. Aqueous DMSO controls were conducted as appropriate for each compound.

[2] = system: red blood cells (mechanically defibrinated sheep blood); experiment: Red blood cell (RBC) lysis assay (Lysis20); details: for Lysis20 (highest concentration at which <20% of RBCs are lysed): sheep RBCs in PBS, 37° C., 1 hour, absorbance 540 nm, Table 1
From the text: These assessments followed standard protocols (Minbiole et al., 2016, Tetrahedron, 72: 3559-3566, Forman et al., 2016, ChemMedChem, 11: 1401-1405, Forman et al., 2016, ChemMedChem, 11: 958-962, Mitchell et al., 2015, ChemBioChem, 16: 2299-2303, Jennings et al., 2015, ACS Inf. Dis, 1: 304-308, Paniak et al., 2014, Bioorg. Med. Chem. Lett, 24: 5824-5828, Ator et al., 2014, Bioorg. Med. Chem. Lett, 24: 3706-3709, Jennings et al., 2014, ChemBioChem, 15: 2211-2215, Black et al., 2014, Bioorg. Med. Chem. Lett, 24, 99-102, Grenier et al., 2012, Bioorg. Med. Chem. Lett, 22: 4055-4058).
RBC lysis assays were performed on mechanically defibrinated sheep blood (Hemostat Labs: DSB030). 1.5 mL of blood was placed into a microcentrifuge tube and centrifuged at 10,000 rpm for ten minutes. The supernatant was removed and the cells were resuspended with 1 mL of phosphate-buffered saline (PBS). The suspension was centrifuged as previously, the supernatant was removed, and cells were resuspended two more times. The final cell suspension was diluted twentyfold with PBS. The twentyfold suspension dilution was then aliquoted into microcentrifuge tubes containing compound serially diluted in PBS. TritonX (1% by volume) served as a positive control (100% lysis marker) and sterile PBS served as a negative control (0% lysis marker). Samples were then placed in an incubator at 37° C. and shaken at 200 rpm. After 1 hour, the samples were centrifuged at 10,000 rpm for ten minutes. The absorbance of the supernatant was measured with a UV spectrometer at a 540 nm wavelength.

[3] = system: hospital-acquired methicillin-resistant Staphylococcus aureus HA-MRSA (ATCC 33591); experiment: microbe, parasite or virus in culture; details: for MIC: Staphylococcus aureus, 72 h, read-out: MIC, HA-MRSA
Procedure: as §1, §2, §3

[4] = system: community-acquired methicillin-resistant Staphylococcus aureus CA-MRSA (USA300-0114); experiment: Minimum inhibitory concentration (MIC), CA-MRSA; details: MH media, 37° C., 72 hours, visual growth
Procedure: as §1, §2, §3

[5] = system: methicillin-susceptible Staphylococcus aureus MSSA (SH1000); experiment: Minimum inhibitory concentration (MIC), S. aureus; details: MH media, 37° C., 72 hours, visual growth
Procedure: as §1, §2, §3

[6] = system: Pseudomonas aeruginosa (PAO1); experiment: Minimum inhibitory concentration (MIC), P. aeruginosa; details: MH media, 37° C., 72 hours, visual growth
Procedure: as §1, §2, §3

[7] = system: Enterococcus faecalis (OG1RF); experiment: Minimum inhibitory concentration (MIC), E. faecalis; details: MH media, 37° C., 72 hours, visual growth
Procedure: as §1, §2, §3

Row | Structure (SMILES) | MIC [1] [µM] | Lysis20 (highest concentration at which <20% of RBCs are lysed) [2] [μm] | MIC [3] [µM] | MIC [4] [µM] | MIC [5] [µM] | MIC [6] [µM] | MIC [7] [µM] | lysis20 (hemolysis activity) ([2]; sheep RBCs, values restated in text) [µM] | antibacterial resistance (increase in MIC) ([3]; strain not given, Table 1 fits HA-MRSA vs S. aureus) [fold]
1 | CCCCCCCCCCCC[n+]1cccc(CN(Cc2ccc[n+](CCCCCCCCCCCC)c2)Cc2ccc[n+](CCCCCCCCCCCC)c2)c1 [M3Pyr-12,12,12] | 1 | 4 | 1 | 0.5 | 1 | 8 | 1 | – | –
2 | CCCCCCCCCCCC[n+]1ccc(CCCc2cc[n+](CCCCCCCCCCCC)cc2)cc1 [2Pyr-12,12] | 1 | 4 | 0.5 | 0.25 | 0.5 | 4 | 0.5 | 4 | –
3 | CCCCCCCCCCCCC[n+]1ccc(CCCc2cc[n+](CCCCCCCCCCCCC)cc2)cc1 [2Pyr-13,13] | 1 | 16 | 0.5 | 0.25 | 0.5 | 8 | 0.5 | – | –
4 | CCCCCCCC[n+]1cccc(CN(Cc2ccc[n+](CCCCCCCC)c2)Cc2ccc[n+](CCCCCCCC)c2)c1 [M3Pyr-8,8,8] | 8 | >250 | 2 | 1 | 2 | 32 | 8 | – | –
5 | c1cc(CN(Cc2ccncc2)Cc2ccncc2)ccn1 [Compound P3Pyr, reference compound] | > 250 | 125 | > 250 | > 250 | > 250 | > 250 | > 250 | – | –
6 | CCCCCCCC[n+]1ccc(CCCc2cc[n+](CCCCCCCC)cc2)cc1 [2Pyr-8,8] | 32 | 125 | 63 | 16 | 8 | > 250 | 63 | – | 8
7 | CCCCCCCCCCCCCCCCCC[n+]1cccc(CN(Cc2ccc[n+](CCCCCCCCCCCCCCCCCC)c2)Cc2ccc[n+](CCCCCCCCCCCCCCCCCC)c2)c1 [M3Pyr-18,18,18] | 63 | 8 | 4 | 4 | 8 | > 250 | 32 | – | –
8 | CCCCCCCCCC[n+]1ccc(CCCc2cc[n+](CCCCCCCCCC)cc2)cc1 [2Pyr-10,10] | 0.5 | 16 | 1 | 0.25 | 0.5 | 16 | 1 | – | –
9 | CCCCCCCCCCC[n+]1cccc(CN(Cc2ccc[n+](CCCCCCCCCCC)c2)Cc2ccc[n+](CCCCCCCCCCC)c2)c1 [M3Pyr-11,11,11] | 1 | 4 | 0.5 | 0.5 | 0.5 | 4 | 1 | – | –
10 | c1cncc(CN(Cc2cccnc2)Cc2cccnc2)c1 [Compound M3Pyr, reference compound] | > 250 | >250 | 250 (≈ 72.6 µg/mL) | 250 (≈ 72.6 µg/mL) | 250 (≈ 72.6 µg/mL) | > 250 | > 250 | – | –
11 | CCCCCCCCCCCCCCCC[n+]1ccc(CCCc2cc[n+](CCCCCCCCCCCCCCCC)cc2)cc1 [2Pyr-16,16] | 63 | 63 | 8 | 4 | 4 | > 250 | 8 | – | –
12 | CCCCCCCCCCCCC[n+]1cccc(CN(Cc2ccc[n+](CCCCCCCCCCCCC)c2)Cc2ccc[n+](CCCCCCCCCCCCC)c2)c1 [M3Pyr-13,13,13] | 2 | 2 | 0.5 | 0.25 | 1 | 8 | 1 | – | –
13 | CCCCCCCCCCCCCC[n+]1cccc(CN(Cc2ccc[n+](CCCCCCCCCCCCCC)c2)Cc2ccc[n+](CCCCCCCCCCCCCC)c2)c1 [M3Pyr-14,14,14] | 4 | 4 | 1 | 1 | 2 | 32 | 2 | – | –
14 | CCCCCCCCCCCCCCCC[n+]1cccc(CN(Cc2ccc[n+](CCCCCCCCCCCCCCCC)c2)Cc2ccc[n+](CCCCCCCCCCCCCCCC)c2)c1 [M3Pyr-16,16,16] | 125 | 4 | 2 | 4 | 2 | ≥ 250 | 8 | – | –
15 | c1cc(CCCc2ccncc2)ccn1 [Compound 2Pyr, 1,3-di-(4-pyridyl)propane, reference compound] | > 250 | >250 | > 250 | > 250 | > 250 | > 250 | > 250 | – | –
16 | CCCCCCCCCC[n+]1cccc(CN(Cc2ccc[n+](CCCCCCCCCC)c2)Cc2ccc[n+](CCCCCCCCCC)c2)c1 [M3Pyr-10,10,10] | 1 | 4 | 0.5 | 0.5 | 0.5 | 2 | 1 | – | –
17 | CCCCCCCCCCCCCC[n+]1ccc(CCCc2cc[n+](CCCCCCCCCCCCCC)cc2)cc1 [2Pyr-14,14] | 4 | 63 | 2 | 2 | 8 | 250 | 1 | – | –
18 | CCCCCCCCCCCCCCCCCC[n+]1ccc(CCCc2cc[n+](CCCCCCCCCCCCCCCCCC)cc2)cc1 [2Pyr-18,18] | > 250 | 32 | 16 | 4 | 8 | > 250 | 8 | – | –
